Measurements: patent publication US9458161B1, “TSPO ligands for cancer imaging and treatment” (Vanderbilt University, priority 2011, dated 2016)
Where two headings read alike, the source gives them in different places.

Legend:
TSPO [1] = target: T1, TSPO (Homo sapiens, UniProt P30536); conditions: cited from earlier work
TSPO [2] = target: T1, TSPO; parameters: host or cells: glioma patients (Junck et al; Pappata et al.); conditions: cited from earlier work
[3] = HPLC radiometabolite analysis of plasma after [18F]DPA-714; type: in vivo, rat; conditions: mean ± SD
Method: Briefly, arterial blood (200 μL) was collected at 2, 12, 30, 60, and 90 min. Following centrifugation, plasma was extracted with acetonitrile:water (340 μL, 7:1, v/v). The mixture was centrifuged and the supernatant used for reversed phase HPLC analysis using 0.1 M aqueous ammonium acetate (NH4)OAc (pH 10) and acetonitrile (30:70; v/v) at 1 mL/min on a C18 Dynamax 250×4.6 mm (Varian) column. Radiochromatographic data were recorded and collected using a radioisotope detector (Bioscan), decay-corrected to time zero of each radiochromatogram, and smoothed using a locally weighted scatter plot smoothing method. The plasma time-activity curve was corrected according to the fraction of unchanged radioligand.

[4] = HPLC radiometabolite analysis of plasma after [18F]PBR06; type: in vivo, rat
Method: Blood samples (200 μL) were collected (2, 25, 45 min) for radiometabolite analysis. Following centrifugation, plasma was extracted with acetonitrile:water (340 μL, 7.5:1, v/v). The mixture was centrifuged and the supernatant used for HPLC analysis. Radioanalysis was conducted as is known in the art. Radiochromatographic data were recorded and collected using a radioisotope detector (Bioscan, Washington, D.C., USA), decay-corrected to time zero of each radiochromatogram, and smoothed using a locally weighted scatter plot smoothing (LOWESS) method. The plasma time-activity curve (TAC) was corrected with the fraction of unchanged radioligand.
Arterial blood samples were collected to assay [^18F]PBR06 radiometabolites for correction of the AIF. FIG. 12 illustrates a typical activity corrected reversed-phase HPLC trace of a blood sample collected two minutes following injection of [^18F]PBR06. At this time point we noted the presence of both ^18F^− (retention time 2.8 min) and the parent ligand (10.1 min) in a respective ratio of ˜1:3.

TSPO [5] = target: TSPO (Rattus norvegicus, UniProt P16257); conditions: for K1/k2: 3-compartment, 4-parameter model; for K1/k2 / k3 / VT: mean ± S.E.; for K1/k2 / k3: N=3; for VT: N=4
Method: In this Example Glioma-bearing rats were imaged with [^18F]PBR06 in a microPET system. Dynamic acquisitions were acquired simultaneously upon injection of 70-100 MBq/0.2 mL [^18F]PBR06. Over the course of scanning, arterial blood was collected to derive the input function, with HPLC radiometabolite analysis performed on selected samples for arterial input function correction. Compartmental modeling of the PET data was performed using the corrected arterial input function. Specific tumor cell binding of PBR06 was evaluated by radioligand displacement of [^3H]PK 11195 with PBR06 in vitro and by displacement of [^18F]PBR06 with excess PBR06 in vivo. Immediately following imaging, tumor tissue and adjacent healthy brain were harvested for assay of TSPO protein levels by western blotting and immunohistochemistry.
PET/CT imaging was performed within 24 h of MR imaging in rats with confirmed tumors. Tumor-bearing rats were administered ˜70-100 MBq/0.2 mL [^18F]PBR06 via a jugular catheter while in a microPET Focus 220 (Siemens Preclinical Solutions, Knoxville, Tenn., USA). Dynamic images (90 min) were collected, followed by CT (microCAT II, Siemens Preclinical Solutions) for attenuation correction. For displacement studies, cold PBR06 (10 mg/kg) was injected via jugular catheter 30 min after radiotracer administration.
The dynamic PET acquisition was divided into twelve, five-second frames for the first minute, followed by 89 sixty-second frames for the duration of the scan. Data from all possible lines of response (LOR) were saved in the list mode raw data format. The raw data was then binned into 3D sinograms with a span of 3 and ring difference of 47. The images were reconstructed into transaxial slices (128×128×95) with voxel sizes of 0.095×0.095×0.08 cm^3, after applying scatter and attenuation corrections, using an iterative ordered subsets expectation maximization (OS-EM 2D) algorithm with 16 subsets and 4 iterations. Attenuation correction was accomplished by generating an attenuation map (sinogram) from the CT image. The CT image was first co-registered with the microPET image, segmented into air, soft tissue, and bone, and then projected into sinograms with a span of 47 and ring difference of 23.
Immediately following administration of [^18F]PBR06, arterial blood samples (50 μL) were collected at 10 s intervals during the first minute of scanning, followed by collection at 90 s and 2, 8, 12, 20, 30, 45, 60, 75, and 90 min. Plasma radioactivity was measured by first centrifuging blood samples (50 μL) at 14,000 rpm for 5 min in a microcentrifuge. Next, plasma (15 μL) was removed and measured in a NaI well counter (Capintec, Ramsey, N.J., USA).
Time-activity curves (TACs) were generated by manually segmenting three-dimensional volumes of interest over tumor and contralateral brain using ASIPro (Siemens Preclinical Solutions), avoiding areas of central necrosis if present. The arterial input function (AIF) was computed from plasma sampling during imaging and corrected for metabolism of the parent ligand. A 3-compartment, 4-rate constant kinetic model was used to characterize [^18F]PBR06 pharmacokinetics as previously described. Using the COMKAT software package, model parameters were estimated for constants for influx (K1) and efflux (k2) rates of radioligand diffusion between plasma and tissue compartments, and exchange between specific (k3) and non-specific binding (k4) compartments. Modeling was carried out for whole brain (excluding tumor) and tumor, individually, by fitting TACs of each region.
To evaluate the in vivo TSPO specificity of [^18F]PBR06, we carried out displacement studies in C6-bearing rats using the cold analog, PBR06.

[6] = at 45 minutes, after infusion of PBR06 at 30 minutes

T1 sequence (P30536 whole entry): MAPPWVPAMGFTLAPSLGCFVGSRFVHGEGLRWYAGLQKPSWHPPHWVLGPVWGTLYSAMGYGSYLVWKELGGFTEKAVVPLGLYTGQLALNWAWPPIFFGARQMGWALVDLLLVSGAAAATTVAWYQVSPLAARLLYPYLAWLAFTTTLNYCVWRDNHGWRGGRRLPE

## CCC(C)N(C)C(=O)c1cc2ccccc2c(-c2ccccc2Cl)n1 (stereo not shown) [PK 11195]
TSPO [1]
  in vitro affinity (in words): in vitro affinity in the low nanomolar range

## CN1C(=O)CN=C(c2ccc(Cl)cc2)c2cc(Cl)ccc21 [Ro5-4864]
TSPO [1]
  in vitro affinity (in words): in vitro affinity in the low nanomolar range

## CC[C@@H](C)N([11CH3])C(=O)c1cc2ccccc2c(-c2ccccc2Cl)n1 [[^11C]PK 11195]
TSPO [2]; glioma patient (Pappata et al.)
  displaceable fraction of tracer with nonradioactive ligand: less than 30%
TSPO [2]; human gliomas (Junck et al.)
  patients with significantly elevated uptake in gliomas vs contralateral normal brain: 8/10
TSPO [2]; human gliomas, in 3/10 patients (Junck et al.)
  tumor/gray matter ratio: ~2

## [11CH3]N1C(=O)CN=C(c2ccc(Cl)cc2)c2cc(Cl)ccc21 [[^11C]Ro5-4864]
TSPO [2]; human gliomas, PET (Junck et al.)
  radioactivity in tumor tissue vs normal brain (in words): failed to demonstrate higher levels of radioactivity in tumor tissue than in normal brain

## CCN(CC)C(=O)Cc1c(-c2ccc(OCC[18F])cc2)nn2c(C)cc(C)nc12 [[^18F]DPA-714]
[3]; P.I. time 2 (N=7)
  % 18F- in plasma: 2 ± 3.3%
  % Metabolite (hydrophilic radiometabolite) in plasma: 3 ± 3.7%
[3]; P.I. time 12 (N=7)
  % 18F- in plasma: 13 ± 6.7%
  % Metabolite (hydrophilic radiometabolite) in plasma: 19 ± 5.8%
  % [18F]DPA-714 (parent) in plasma: 68 ± 7.4%
[3]; P.I. time 30 (N=7)
  % 18F- in plasma: 37 ± 5.4%
  % Metabolite (hydrophilic radiometabolite) in plasma: 19 ± 8.8%
  % [18F]DPA-714 (parent) in plasma: 44 ± 8.9%
[3]; P.I. time 60 (N=7)
  % 18F- in plasma: 50 ± 15.0%
  % Metabolite (hydrophilic radiometabolite) in plasma: 23 ± 7.3%
  % [18F]DPA-714 (parent) in plasma: 27 ± 6.2%
[3]; P.I. time 90 (N=5)
  % 18F- in plasma: 64 ± 12.1%
  % Metabolite (hydrophilic radiometabolite) in plasma: 14 ± 3.8%
  % [18F]DPA-714 (parent) in plasma: 22 ± 17.8%

## COc1ccc(OC)c(CN(C(=O)C[18F])c2ccccc2Oc2ccccc2)c1 [[^18F]PBR06]
[4]; at 2 minutes after injection
  free 18F− in plasma: 25%
  parent ligand [18F]PBR06 in plasma: 75%
[4]; at 30 minutes
  free 18F− in plasma: 62%
  parent ligand [18F]PBR06 in plasma: 38%
[4]; [6]
  18F− in plasma: 43%
  fraction of [18F]PBR06 in plasma: 57%
TSPO [5]; C6 glioma-bearing rats
  tracer distribution tumor vs contralateral brain (in words): preferentially accumulate in tumors with modest uptake in contralateral brain
TSPO [5]; PBR06 10 mg/kg i.v. 30 min after tracer
  tumor activity after PBR06 infusion, % of maximum/peak tumor uptake: approximately 25%
TSPO [5]; brain
  K1/k2: 6.164 ± 2.049 mL/g
  k3: 0.0714 ± 0.0261 min⁻¹
  VT: 13.07 ± 3.901 mL/g
TSPO [5]; brain, mean, N=3 (S.E. in next line)
  k4: 0.00945 min⁻¹
TSPO [5]; infusion of PBR06 10 mg/kg 30 min after tracer, tumor
  displaceable [18F]PBR06 binding: approximately 75%
TSPO [5]; last 20 minutes of the PET scan
  total radioactivity in tumor relative to normal brain: approximately three- to four-fold higher than normal brain
TSPO [5]; tumor
  K1/k2: 5.947 ± 1.982 mL/g
  k3: 0.3870 ± 0.1592 min⁻¹
  VT: 63.90 ± 3.400 mL/g
